For test [1], the system named is HCT-116 cells. In words: Test for inhibiting sphere-forming ability of cancer cells in the presence of BSA (Test Example 2). Particulars: Homo sapiens, 96 h; HCT-116 spheres, 5% bovine serum albumin (BSA), 4 days, CellTiter-Glo; read-out: Sphere IC50 value (concentration for 50% inhibition of cell proliferation). It is filed as cell-based. As for the experimental part:
(§1) HCT-116 cells were available from the American Type Culture Collection (ATCC). HCT-116 cells were cultured at 37° C. and 5% CO2 using the McCoy's 5a medium containing 10% fetal bovine serum (FBS) and 1% penicillin/streptomycin. […] The test compounds were added into each well to adjust the final concentration of DMSO to 0.1%, and the cells were cultured for 4 days.

For test [2], the system named is HCT-116 cells. In words: Inhibition of sphere-forming ability of cancer cells (Test Example 1). It is filed as cell-based. Particulars: Homo sapiens, 96 h; HCT-116 spheres, non-adherent, serum-free, 4 days, CellTiter-Glo; read-out: Sphere IC50 value (concentration for 50% inhibition of cell proliferation). As for the experimental part: as §1
In test [3] the test system is HCT-116 tumor-bearing mouse. The experiment in a line: Anti-tumor effect to HCT-116 tumor-bearing mouse (Test Example 4). It is filed as in vivo. The conditions noted are these: nude mouse, oral. The source says:
The present compound can be used to evaluate the anti-tumor effect thereof. A 4 to 7-week-old nude mouse (BALB/cAnNCrj-nu/nu, female, CHARLES RIVER LABORATORIES JAPAN, INC.) received intradermal transplantation of HCT-116 cells (ATCC) in an amount of 3×10^6 cells/mouse around the ventral portion. The engraftment of HCT-116 cells was observed 5 to 14 days after the transplantation, and then each compound suspended in a solvent such as 0.5% methylcellulose solution was orally administrated to the mouse in a dose of 1 to 100 mg/kg one to twice daily. The tumor volume was measured over time after the administration to evaluate the effect for reducing the tumor volume by the administration of each compound. The tumor volume can be calculated from the minor axis and the major axis of the tumor measured with a digital caliper (Mitutoyo) according to the following formula: Tumor volume [mm^3]=0.5×minor axis [mm]×(major axis [mm])^2
The tumor volume in control administration group treated with only a solvent such as 0.5% methylcellulose solution was compared with that of the present compound administration group, and T/C value was calculated according the following formula to evaluate the anti-tumor effect of the present compound. T/C (%)=(the tumor volume at the end of administration in the present compound administration group−the tumor volume at the start of administration in the present compound administration group)/(the tumor volume at the end of administration in the control administration group−the tumor volume at the start of administration in the […] administration group)×100
The T/C values (%) of the present compound on each dosage and administration period in the HCT-116 tumor-bearing mouse are shown below.

Where [4] appears, read: dosage 30 mg/kg, administration period 17 days.
Where [5] appears, read: dosage 100 mg/kg, administration period 17 days.

SMILES strings stand for the structures. Several values for one entry are separate records, joined by “and”; a condition that tells them apart may be missing. Equal values may be shown once. Where only a bound is given, the exact number is not on record here.

Regarding `O=C(Nc1cn(Cc2cccc(C(F)(F)F)c2)cn1)c1ccc(CO)nc1` [Example 12, 6-(hydroxymethyl)-N-{1-[3-(trifluoromethyl)benzyl]-1H-imidazol-4-yl}nicotinamide], the IC50 with HCT-116 cells [1] is 60 nM; in the test with HCT-116 cells [2] it was < 10 nM. In addition, the “T/C (%)” value in test [3] (dosage 100 mg/kg, administration period 16 days) came out at 49%.

Take `O=C(Nc1cn(Cc2cccc(C(F)(F)F)c2)cn1)c1cnc(CO)c(C(F)F)c1` [Example 17, 5-(difluoromethyl)-6-(hydroxymethyl)-N-{1-[3-(trifluoromethyl)benzyl]-1H-imidazol-4-yl}nicotinamide]: the IC50 is 57 nM in the test with HCT-116 cells [1] and < 10 nM in the test with HCT-116 cells [2]. Moreover, the “T/C (%)” value in test [3] (setting [4]) came to 74%; in test [3] (setting [5]), 75%.

For the compound `O=C(Nc1cn(Cc2cc(F)c(F)c(F)c2)cn1)c1cnc(CO)c(C(F)F)c1` [Example 18, 5-(difluoromethyl)-6-(hydroxymethyl)-N-[1-(3,4,5-trifluorobenzyl)-1H-imidazol-4-yl]nicotinamide], the values for the IC50 in the test with HCT-116 cells [1] and in the test with HCT-116 cells [2] were 53 nM and < 10 nM, respectively. The results for the “T/C (%)” value in test [3] (setting [4]) and in test [3] (setting [5]) were 63% and 54%, respectively.

In the case of `Cc1cc(C(=O)Nc2cn(Cc3cc(F)c(F)c(F)c3)cn2)cnc1CO` [Example 39, 6-(hydroxymethyl)-5-methyl-N-[1-(3,4,5-trifluorobenzyl)-1H-imidazol-4-yl]nicotinamide], the IC50 with HCT-116 cells [1] and in the test with HCT-116 cells [2] was < 10 nM throughout. Also, the “T/C (%)” value in test [3] (setting [4]) came out at 79%; in test [3] (setting [5]), 65%.

Consider `Nc1cc(C(=O)Nc2cn(Cc3cccc(C(F)(F)F)c3)cn2)cnc1CO` [Example 45, 5-Amino-6-(hydroxymethyl)-N-{1-[3-(trifluoromethyl)benzyl]-1H-imidazol-4-yl}nicotinamide], for which the IC50 turned out to be 59 nM with HCT-116 cells [1] and 29 nM with HCT-116 cells [2]. For the same compound, the “T/C (%)” value in test [3] (setting [4]) is 90% and 91%; in test [3] (setting [5]), 81%.

Consider `Nc1cc(C(=O)Nc2cn(Cc3cc(F)c(F)c(F)c3)cn2)cnc1CO` [Example 46, 5-Amino-6-(hydroxymethyl)-N-[1-(3,4,5-trifluorobenzyl)-1H-imidazol-4-yl]nicotinamide], for which the IC50 with HCT-116 cells [1] came out at 57 nM; in the test on HCT-116 cells [2], 10 nM. Also, the “T/C (%)” value in test [3] (setting [5]) was 91%.

`Cc1ccc(Cn2cnc(NC(=O)c3cnc(CO)c(C(F)F)c3)c2)cc1C(F)(F)F` [Example 70, 5-(difluoromethyl)-6-(hydroxymethyl)-N-{1-[4-methyl-3-(trifluoromethyl)benzyl]-1H-imidazol-4-yl}nicotinamide]: the figures for the IC50 in the test with HCT-116 cells [1] and in the test with HCT-116 cells [2] were 60 nM and < 10 nM, respectively.

For the compound `O=C(Nc1cn(Cc2ccc(Cl)c(Cl)c2)cn1)c1cnc(CO)c(C(F)F)c1` [Example 71, N-[1-(3,4-dichlorobenzyl)-1H-imidazol-4-yl]-5-(difluoromethyl)-6-(hydroxymethyl)nicotinamide], the IC50 was 60 nM in the test on HCT-116 cells [1] and < 10 nM with HCT-116 cells [2].

With `O=C(Nc1cn(Cc2ccc(C(F)(F)F)c(F)c2)cn1)c1cnc(CO)c(C(F)F)c1` [Example 74, 5-(difluoromethyl)-N-{1-[3-fluoro-4-(trifluoromethyl)benzyl]-1H-imidazol-4-yl}-6-(hydroxymethyl)nicotinamide], the IC50 worked out at 670 nM in the test on HCT-116 cells [1] and 380 nM with HCT-116 cells [2].

With `O=C(Nc1cn(Cc2cc(Cl)cc(Cl)c2)cn1)c1cnc(CO)c(C(F)F)c1` [Example 75, N-[1-(3,5-dichlorobenzyl)-1H-imidazol-4-yl]-5-(difluoromethyl)-6-(hydroxymethyl)nicotinamide], the results for the IC50 in the test on HCT-116 cells [1] and with HCT-116 cells [2] were 50 nM and < 10 nM, respectively.

Regarding `O=C(Nc1cn(Cc2cc(F)cc(Br)c2)cn1)c1cnc(CO)c(C(F)F)c1` [Example 76, N-[1-(3-bromo-5-fluorobenzyl)-1H-imidazol-4-yl]-5-(difluoromethyl)-6-(hydroxymethyl)nicotinamide], the IC50 with HCT-116 cells [1] is 60 nM; in the test with HCT-116 cells [2], 50 nM.

For the compound `O=C(Nc1cn(Cc2cc(F)cc(Cl)c2)cn1)c1cnc(CO)c(C(F)F)c1` [Example 78, N-[1-(3-chloro-5-fluorobenzyl)-1H-imidazol-4-yl]-5-(difluoromethyl)-6-(hydroxymethyl)nicotinamide], the IC50 in the test on HCT-116 cells [1] came out at 60 nM; with HCT-116 cells [2] it was 50 nM.

Take `O=C(Nc1cn(Cc2cc(F)cc(F)c2)cn1)c1cnc(CO)c(C(F)F)c1` [Example 79, N-[1-(3,5-difluorobenzyl)-1H-imidazol-4-yl]-5-(difluoromethyl)-6-(hydroxymethyl)nicotinamide]: the IC50 in the test with HCT-116 cells [1] was determined as 60 nM; with HCT-116 cells [2], 80 nM.

In the case of `O=C(Nc1cn(Cc2cc(F)c(F)c(F)c2)cn1)c1ccc(CO)nn1` [Example 85, 6-(Hydroxymethyl)-N-[1-(3,4,5-trifluorobenzyl)-1H-imidazol-4-yl]pyridazine-3-carboxamide], the IC50 in the test with HCT-116 cells [1] was 30 nM; with HCT-116 cells [2] it was 20 nM.

The record behind these values is US11661397B2, “1,4-disubstituted imidazole derivative” (Sumitomo Pharma Co., Ltd., priority 2015, dated 2023).
